Experimental findings from patent US8129417B2, “Substituted octahydrocyclopenta[C]pyrrol-4-amines as calcium channel blockers” (Abbott Laboratories, priority 2008, dated 2012) are described below.

By IC50 is commonly meant the concentration that inhibits the measured activity by half.

Molecules are shown by their SMILES.

The target in the first test is human Cav2.2 (Homo sapiens, UniProt Q00975). Put plainly: Assessment of calcium channel activity using FLIPR (Ca2+ influx in IMR32 cells). The format is cell-based. The following applies: 3 minute pre-incubation with compound (*), 2 μM nifedipine, depolarized with 80 mM KCl. A digest of the protocol: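 IMR32 neuroblastoma cells seeded at 1-1.2×10^5 cells/well and grown 48 h at 37 °C before FLIPR Ca2+ influx read. Percent inhibition at each concentration vs no-inhibitor activity; IC50 by non-linear sigmoidal dose-response fit.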
Chain of human Cav2.2 (Q00975 whole entry): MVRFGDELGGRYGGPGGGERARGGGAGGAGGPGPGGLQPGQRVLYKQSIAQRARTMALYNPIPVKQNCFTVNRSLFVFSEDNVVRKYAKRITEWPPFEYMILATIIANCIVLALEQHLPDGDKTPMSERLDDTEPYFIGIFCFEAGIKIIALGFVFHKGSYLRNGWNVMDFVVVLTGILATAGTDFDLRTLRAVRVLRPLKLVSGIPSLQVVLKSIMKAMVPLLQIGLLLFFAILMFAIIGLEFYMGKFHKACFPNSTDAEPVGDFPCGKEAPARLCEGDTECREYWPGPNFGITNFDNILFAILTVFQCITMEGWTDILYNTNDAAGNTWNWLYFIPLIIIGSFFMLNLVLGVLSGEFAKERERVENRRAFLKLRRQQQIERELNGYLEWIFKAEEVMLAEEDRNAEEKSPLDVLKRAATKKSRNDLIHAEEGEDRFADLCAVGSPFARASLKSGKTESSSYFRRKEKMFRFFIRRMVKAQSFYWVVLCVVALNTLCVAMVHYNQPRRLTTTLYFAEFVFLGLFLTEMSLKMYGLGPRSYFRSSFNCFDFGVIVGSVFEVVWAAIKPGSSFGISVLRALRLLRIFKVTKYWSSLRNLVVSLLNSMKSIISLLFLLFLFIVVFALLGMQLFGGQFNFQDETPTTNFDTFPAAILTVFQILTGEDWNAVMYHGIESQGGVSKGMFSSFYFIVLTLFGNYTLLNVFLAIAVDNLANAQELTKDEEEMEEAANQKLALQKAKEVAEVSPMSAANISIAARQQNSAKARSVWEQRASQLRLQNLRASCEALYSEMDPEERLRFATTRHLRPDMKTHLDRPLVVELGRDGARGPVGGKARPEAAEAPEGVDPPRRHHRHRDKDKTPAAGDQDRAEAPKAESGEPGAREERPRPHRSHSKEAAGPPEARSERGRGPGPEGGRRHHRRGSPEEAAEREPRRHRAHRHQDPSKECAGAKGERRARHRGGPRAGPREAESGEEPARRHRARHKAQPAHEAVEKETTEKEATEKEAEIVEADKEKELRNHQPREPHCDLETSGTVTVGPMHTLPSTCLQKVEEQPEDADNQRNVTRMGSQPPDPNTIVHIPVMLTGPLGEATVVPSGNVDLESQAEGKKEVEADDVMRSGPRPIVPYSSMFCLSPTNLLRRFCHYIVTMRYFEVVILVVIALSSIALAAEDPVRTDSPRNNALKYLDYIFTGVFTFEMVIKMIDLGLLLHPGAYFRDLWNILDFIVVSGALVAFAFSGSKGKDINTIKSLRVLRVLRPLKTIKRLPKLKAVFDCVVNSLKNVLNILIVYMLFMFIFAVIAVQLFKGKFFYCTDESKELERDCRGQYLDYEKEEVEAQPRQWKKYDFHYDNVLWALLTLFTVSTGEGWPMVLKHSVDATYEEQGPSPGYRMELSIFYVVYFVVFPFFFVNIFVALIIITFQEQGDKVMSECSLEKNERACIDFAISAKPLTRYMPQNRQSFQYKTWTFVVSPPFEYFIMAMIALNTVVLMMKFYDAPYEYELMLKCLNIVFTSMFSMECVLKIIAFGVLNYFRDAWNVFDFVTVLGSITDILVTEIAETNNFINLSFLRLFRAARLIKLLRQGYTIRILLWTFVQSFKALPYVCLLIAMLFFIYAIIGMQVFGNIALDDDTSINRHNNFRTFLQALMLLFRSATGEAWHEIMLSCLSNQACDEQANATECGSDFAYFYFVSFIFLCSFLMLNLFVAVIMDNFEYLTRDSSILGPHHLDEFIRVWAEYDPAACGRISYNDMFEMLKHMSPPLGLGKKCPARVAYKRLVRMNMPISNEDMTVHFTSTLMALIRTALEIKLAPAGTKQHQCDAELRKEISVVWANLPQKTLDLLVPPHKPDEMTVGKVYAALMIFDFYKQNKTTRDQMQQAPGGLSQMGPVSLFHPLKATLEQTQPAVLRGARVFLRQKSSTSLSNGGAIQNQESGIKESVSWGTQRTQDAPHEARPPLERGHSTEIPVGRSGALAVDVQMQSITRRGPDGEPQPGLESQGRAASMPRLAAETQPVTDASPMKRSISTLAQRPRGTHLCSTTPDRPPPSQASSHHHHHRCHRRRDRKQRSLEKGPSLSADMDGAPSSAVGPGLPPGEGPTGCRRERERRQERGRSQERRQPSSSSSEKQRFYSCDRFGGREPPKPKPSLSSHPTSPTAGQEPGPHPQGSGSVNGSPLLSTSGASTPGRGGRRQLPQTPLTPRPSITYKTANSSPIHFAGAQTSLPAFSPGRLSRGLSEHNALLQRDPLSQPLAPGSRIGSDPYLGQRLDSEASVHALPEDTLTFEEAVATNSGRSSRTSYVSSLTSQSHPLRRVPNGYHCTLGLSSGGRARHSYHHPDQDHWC
Chain of human Cav2.2 (P54289 25-946 partner limits assumed): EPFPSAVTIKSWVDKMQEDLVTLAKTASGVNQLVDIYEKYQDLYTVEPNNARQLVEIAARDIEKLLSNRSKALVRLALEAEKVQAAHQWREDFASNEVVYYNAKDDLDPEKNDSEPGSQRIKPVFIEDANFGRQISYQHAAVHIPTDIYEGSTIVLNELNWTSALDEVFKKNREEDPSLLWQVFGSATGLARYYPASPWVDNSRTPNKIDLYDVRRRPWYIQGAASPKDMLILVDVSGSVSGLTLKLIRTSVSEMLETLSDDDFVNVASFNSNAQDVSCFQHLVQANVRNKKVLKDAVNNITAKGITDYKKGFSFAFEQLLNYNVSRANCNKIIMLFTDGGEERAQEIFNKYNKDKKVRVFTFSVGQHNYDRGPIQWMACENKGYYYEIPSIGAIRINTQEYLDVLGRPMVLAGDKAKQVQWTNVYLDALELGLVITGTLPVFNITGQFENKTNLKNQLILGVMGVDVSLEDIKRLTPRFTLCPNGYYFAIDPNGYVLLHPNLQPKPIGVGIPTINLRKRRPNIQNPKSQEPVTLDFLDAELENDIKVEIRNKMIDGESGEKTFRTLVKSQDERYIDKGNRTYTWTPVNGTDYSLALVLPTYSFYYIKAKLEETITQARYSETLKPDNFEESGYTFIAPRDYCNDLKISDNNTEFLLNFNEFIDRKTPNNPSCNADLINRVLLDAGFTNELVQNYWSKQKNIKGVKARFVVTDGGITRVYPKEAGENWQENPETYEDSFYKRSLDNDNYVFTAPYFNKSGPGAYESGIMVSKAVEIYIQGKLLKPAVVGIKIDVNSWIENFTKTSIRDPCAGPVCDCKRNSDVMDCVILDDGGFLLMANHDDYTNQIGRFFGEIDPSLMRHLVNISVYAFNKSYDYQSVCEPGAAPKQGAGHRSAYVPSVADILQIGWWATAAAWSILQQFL
Chain of human Cav2.2 (P54289 947-1103 partner limits assumed): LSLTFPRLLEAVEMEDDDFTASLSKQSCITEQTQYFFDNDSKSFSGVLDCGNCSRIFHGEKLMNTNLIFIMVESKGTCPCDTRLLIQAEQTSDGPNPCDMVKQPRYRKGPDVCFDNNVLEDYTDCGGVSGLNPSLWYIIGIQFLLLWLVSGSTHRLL
Chain of human Cav2.2 (P54284 whole entry partner): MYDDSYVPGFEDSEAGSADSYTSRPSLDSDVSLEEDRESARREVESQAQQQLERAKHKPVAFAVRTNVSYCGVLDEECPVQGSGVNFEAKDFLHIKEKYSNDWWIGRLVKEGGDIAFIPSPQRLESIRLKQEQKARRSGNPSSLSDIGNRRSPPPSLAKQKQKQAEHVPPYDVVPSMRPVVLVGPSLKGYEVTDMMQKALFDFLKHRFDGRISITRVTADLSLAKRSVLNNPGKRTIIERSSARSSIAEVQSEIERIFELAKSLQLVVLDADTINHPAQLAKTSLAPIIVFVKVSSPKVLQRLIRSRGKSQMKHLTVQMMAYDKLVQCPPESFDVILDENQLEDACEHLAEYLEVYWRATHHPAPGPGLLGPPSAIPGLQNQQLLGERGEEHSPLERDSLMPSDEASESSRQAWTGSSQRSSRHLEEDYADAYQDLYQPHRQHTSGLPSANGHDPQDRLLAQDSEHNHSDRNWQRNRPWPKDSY
With `CC(C)C(C(=O)N[C@@H]1CC[C@@H]2CN(Cc3ccccc3)C[C@@H]21)c1ccccc1` (relative stereo) [Example 5, N-[(3aR*,4R*,6aS*)-2-benzyloctahydrocyclopenta[c]pyrrol-4-yl]-3-methyl-2-phenylbutanamide], the IC50 was 3800 nM.
Turning to `CC(C)C(C(=O)N[C@H]1CC[C@@H]2CN(Cc3cccc(C#N)c3)C[C@@H]21)c1ccccc1` (stereo partly drawn) [Example 97, N-[(3aR,4S,6aS)-2-(3-cyanobenzyl)octahydrocyclopenta[c]pyrrol-4-yl]-3-methyl-2-phenylbutanamide], the IC50 stood at 5300 nM.
Regarding `O=C(N[C@@H]1CC[C@H]2CNC[C@H]21)C(C1CCCCC1)C1CCCCC1` [Example 74, 2,2-dicyclohexyl-N-[(3aS,4R,6aR)-octahydrocyclopenta[c]pyrrol-4-yl]acetamide], the IC50 was 11200 nM.
The same measure, in the same setting: the same measure for `O=C(N[C@H]1CC[C@@H]2CN(Cc3ccccc3)C[C@@H]21)C(Cc1ccccc1)c1ccccc1` (stereo partly drawn) [Example 50, N-[(3aR,4S,6aS)-2-benzyloctahydrocyclopenta[c]pyrrol-4-yl]-2,3-diphenylpropanamide]: 5000 nM.
On the same count and under the same terms, the same measure for `O=C(N[C@H]1CC[C@H]2CN(Cc3ccccc3)C[C@H]21)C1(c2ccccc2)CCCC1` (relative stereo) [Example 1, N-[(3aS*,4S*,6aR*)-2-benzyloctahydrocyclopenta[c]pyrrol-4-yl]-1-phenylcyclopentanecarboxamide]: 3500 nM; for `CC(C)(C(=O)N[C@@H]1CC[C@H]2CN(Cc3ccccc3)C[C@H]21)c1ccccc1` [Example 27, N-[(3aS,4R,6aR)-2-benzyloctahydrocyclopenta[c]pyrrol-4-yl]-2-methyl-2-phenylpropanamide]: 9700 nM.
Take `O=C(N[C@@H]1CC[C@H]2CN(Cc3ccccc3)C[C@H]21)C1(c2ccccc2)CCCCC1` [Example 24, N-[(3aS,4R,6aR)-2-benzyloctahydrocyclopenta[c]pyrrol-4-yl]-1-phenylcyclohexanecarboxamide]: the IC50 is 2900 nM.
Same read-out and setting: then `Cc1cccc(CCCN2C[C@H]3CC[C@H](NC(=O)C(c4ccccc4)C(C)C)[C@H]3C2)c1` (stereo partly drawn) [Example 110, 3-methyl-N-{(3aR,4S,6aS)-2-[3-(3-methylphenyl)propyl]octahydrocyclopenta[c]pyrrol-4-yl}-2-phenylbutanamide], with 2000 nM.

Still in this test, the particulars now being: 60 minute pre-incubation with compound, 2 μM nifedipine, depolarized with 80 mM KCl.
Regarding `CC(C)C[C@@H](C(=O)N[C@@H]1CC[C@@H]2CN(S(=O)(=O)c3ccc(C(F)(F)F)cc3)C[C@@H]21)N(C)C(=O)OC(C)(C)C` [Example 329, tert-butyl methyl((S)-4-methyl-1-oxo-1-((3aR,4R,6aS)-2-(4-(trifluoromethyl)phenylsulfonyl)octahydrocyclopenta[c]pyrrol-4-ylamino)pentan-2-yl)carbamate], the IC50 is 2600 nM.
For the compound `CC(C)N[C@@H](CC(C)(C)C)C(=O)N1C[C@H]2CC[C@H](NC(=O)C(c3ccc(F)cc3)c3ccc(F)cc3)[C@H]2C1` [Example 492, 2,2-bis(4-fluorophenyl)-N-[(3aR,4S,6aS)-2-(N-isopropyl-4-methyl-L-leucyl)octahydrocyclopenta[c]pyrrol-4-yl]acetamide], the IC50 worked out at 2000 nM.
On the same count and under the same terms, then `CCCC[C@H](NC)C(=O)N[C@H]1CC[C@@H]2CN(S(=O)(=O)c3ccc(F)cc3)C[C@@H]21` [Example 454, N^1-{(3aR,4S,6aS)-2-[(4-fluorophenyl)sulfonyl]octahydrocyclopenta[c]pyrrol-4-yl}-N^2-methyl-L-norleucinamide], with 2030 nM; and `CN[C@@H](CC(C)C)C(=O)N1C[C@H]2CC[C@H](NC(=O)C(c3ccc(F)cc3)c3ccc(F)cc3)[C@H]2C1` [Example 459, 2,2-bis(4-fluorophenyl)-N-[(3aR,4S,6aS)-2-(N-methyl-L-leucyl)octahydrocyclopenta[c]pyrrol-4-yl]acetamide], with 1620 nM.
On the same count and under the same terms, the same measure for `CC(C)C[C@@H](C(=O)N[C@H]1CC[C@@H]2CN(Cc3ccccc3)C[C@@H]21)N(C)C(=O)OC(C)(C)C` [Example 222, tert-butyl(S)-1-((3aR,4S,6aS)-2-benzyloctahydrocyclopenta[c]pyrrol-4-ylamino)-4-methyl-1-oxopentan-2-yl(methyl)carbamate]: 2050 nM; for `CN(C(=O)OC(C)(C)C)[C@@H](CC(C)(C)C)C(=O)N(C)[C@H]1CC[C@@H]2CN(S(=O)(=O)c3ccc(C(F)(F)F)cc3)C[C@@H]21` [Example 302, tert-butyl(S)-4,4-dimethyl-1-(methyl((3aR,4S,6aS)-2-(4-(trifluoromethyl)phenylsulfonyl)octahydrocyclopenta[c]pyrrol-4-yl)amino)-1-oxopentan-2-yl(methyl)carbamate]: 1140 nM.
Same read-out and setting: then `CCCCN[C@@H](CC(C)(C)C)C(=O)N[C@H]1CC[C@@H]2CN(S(=O)(=O)c3ccc(C(F)(F)F)cc3)C[C@@H]21` [Example 476, N^2-butyl-4-methyl-N^1-((3aR,4S,6aS)-2-{[4-(trifluoromethyl)phenyl]sulfonyl}octahydrocyclopenta[c]pyrrol-4-yl)-L-leucinamide], with 1310 nM.
For `CC(C)C[C@H](NCC(C)(C)C)C(=O)N[C@@H]1CC[C@H]2CN(Cc3ccccc3)C[C@H]21` [Example 245, N^1-[(3aS,4R,6aR)-2-benzyloctahydrocyclopenta[c]pyrrol-4-yl]-N^2-neopentyl-L-leucinamide], the IC50 turned out to be 8080 nM.
Consider `O=C(N[C@H]1CC[C@H]2CN(Cc3cccc(C(F)(F)F)c3)C[C@H]21)C(c1ccccc1)c1ccccc1` (relative stereo) [Example 135, 2,2-diphenyl-N-{(3aS*,4S*,6aR*)-2-[3-(trifluoromethyl)benzyl]octahydrocyclopenta[c]pyrrol-4-yl}acetamide], for which the IC50 turned out to be 900 nM.
Still for that read-out and setting: the same measure for `CC(C)C[C@@H](C(=O)N[C@H]1CC[C@@H]2CN(S(=O)(=O)c3cccc(C(F)(F)F)c3)C[C@@H]21)N(C)C(=O)OC(C)(C)C` [Example 322, tert-butyl methyl((S)-4-methyl-1-oxo-1-((3aR,4S,6aS)-2-(3-(trifluoromethyl)phenylsulfonyl)octahydrocyclopenta[c]pyrrol-4-ylamino)pentan-2-yl)carbamate]: 700 nM.
Still for that read-out and setting: then `CCCN[C@H]1CC[C@@H]2CN(S(=O)(=O)c3ccc(C(F)(F)F)cc3)C[C@@H]21` [Example 290, (3aR,4S,6aS)—N-propyl-2-{[4-(trifluoromethyl)phenyl]sulfonyl}octahydrocyclopenta[c]pyrrol-4-amine], with 7800 nM; and `O=C(N[C@@H]1CC[C@H]2CN(S(=O)(=O)c3cccc(C(F)(F)F)c3)C[C@H]21)[C@@H]1CCCN1` [Example 396, N-((3aS,4R,6aR)-2-{[3-(trifluoromethyl)phenyl]sulfonyl}octahydrocyclopenta[c]pyrrol-4-yl)-L-prolinamide], with 3550 nM; and `CCCC[C@H](NC)C(=O)N[C@H]1CC[C@@H]2CN(S(=O)(=O)c3cccc(C(F)(F)F)c3)C[C@@H]21` [Example 393, N^2-methyl-N^1-((3aR,4S,6aS)-2-{[3-(trifluoromethyl)phenyl]sulfonyl}octahydrocyclopenta[c]pyrrol-4-yl)-L-norleucinamide], with 1080 nM.
`CC(C)N[C@H]1CC[C@@H]2CN(S(=O)(=O)c3ccc(C(F)(F)F)cc3)C[C@@H]21` [Example 283, (3aR,4S,6aS)—N-isopropyl-2-{[4-(trifluoromethyl)phenyl]sulfonyl}octahydrocyclopenta[c]pyrrol-4-amine]: the IC50 turned out to be 8690 nM.
For the compound `CCC[C@@H](C(=O)N[C@H]1CC[C@H]2CN(Cc3ccccc3)C[C@H]21)N(C)C(=O)OC(C)(C)C` [Example 238, tert-butyl(S)-1-((3aS,4S,6aR)-2-benzyloctahydrocyclopenta[c]pyrrol-4-ylamino)-1-oxopentan-2-yl(methyl)carbamate], the IC50 is 5730 nM.
Still for that read-out and setting: then `CN[C@@H](CC(C)(C)C)C(=O)N[C@@H]1CC[C@H]2CN(S(=O)(=O)c3ccc(C(F)(F)F)cc3)C[C@H]21` [Example 417, N^2,4-dimethyl-N^1-((3aS,4R,6aR)-2-{[4-(trifluoromethyl)phenyl]sulfonyl}octahydrocyclopenta[c]pyrrol-4-yl)-L-leucinamide], with 1160 nM.
For `CC(=O)N(C)[C@@H](CC(C)C)C(=O)N[C@H]1CC[C@H]2CN(Cc3cccc(C(F)(F)F)c3)C[C@H]21` [Example 175, N^2-acetyl-N^2-methyl-N^1-{(3aS,4S,6aR)-2-[3-(trifluoromethyl)benzyl]octahydrocyclopenta[c]pyrrol-4-yl}-L-leucinamide], the 50% inhibitory concentration (IC50) turned out to be 1500 nM.
Same read-out and setting: the same measure for `CC(C)C[C@@H](C(=O)N[C@@H]1CC[C@H]2CN(S(=O)(=O)c3ccc(F)c(C(F)(F)F)c3)C[C@H]21)N(C)C(=O)OC(C)(C)C` [Example 327, tert-butyl(S)-1-((3aS,4R,6aR)-2-(4-fluoro-3-(trifluoromethyl)phenylsulfonyl)octahydrocyclopenta[c]pyrrol-4-ylamino)-4-methyl-1-oxopentan-2-yl(methyl)carbamate]: 1830 nM; for `CCC[C@H](NC)C(=O)N[C@H]1CC[C@@H]2CN(S(=O)(=O)c3cccc(C(F)(F)F)c3)C[C@@H]21` [Example 394, N^2-methyl-N^1-((3aR,4S,6aS)-2-{[3-(trifluoromethyl)phenyl]sulfonyl}octahydrocyclopenta[c]pyrrol-4-yl)-L-norvalinamide]: 980 nM; for `CC(C)C[C@@H](C(=O)N[C@@H]1CC[C@H]2CN(S(=O)(=O)c3cccc(C(F)(F)F)c3)C[C@H]21)N(C)C` [Example 512, N^2,N^2-dimethyl-N^1-((3aS,4R,6aR)-2-{[3-(trifluoromethyl)phenyl]sulfonyl}octahydrocyclopenta[c]pyrrol-4-yl)-L-leucinamide]: 470 nM.
Still for that read-out and setting: the same measure for `CCC(CC)N[C@@H](CC(C)(C)C)C(=O)N[C@H]1CC[C@@H]2CN(S(=O)(=O)c3ccc(C(F)(F)F)cc3)C[C@@H]21` [Example 503, N^2-(1-ethylpropyl)-4-methyl-N^1-((3aR,4S,6aS)-2-{[4-(trifluoromethyl)phenyl]sulfonyl}octahydrocyclopenta[c]pyrrol-4-yl)-L-leucinamide]: 890 nM.
